From PubChem BioAssay AID1259411 (Chemical Carcinogenesis Research Information System (CCRIS), 2018)
Activity calls are given as the source filed them. No rule for the calls is given here.

Test system: rodent carcinogenicity bioassays, tumor incidence
Assay: CCRIS carcinogenicity studies
Conditions: Dose: 0, Dose: 0
Excerpt: The CCRIS database contains chemical records with carcinogenicity, mutagenicity, tumor promotion, and tumor inhibition test results. It was developed by the National Cancer Institute (NCI). Data are derived from studies cited in primary journals, current awareness tools, NCI reports, and other sources. Test results have been reviewed by experts in carcinogenesis and mutagenesis.
CCRIS provides historical information from the years 1985 - 2011. It is no longer updated.
This is an archive assay for CCRIS carcinogenicity studies.

With `C=COC(C)=O` the carcinogen call (Species: MOUSE, Strain/Sex: CRL:CD-1(ICR)BR/FEMALE, Route: INHALATION, 50, 200, 600 PPM 6 HR/D 5 D/WK FOR 104 WK (STUDY DURATION: 104 WK), 50, 200, 600 PPM 6 HR/D 5 D/WK FOR 104 WK (STUDY DURATION: 104 WK)) was “inactive; negative”, the carcinogen call (Species: MOUSE, Strain/Sex: CRL:CD-1(ICR)BR/MALE, Route: INHALATION, 50, 200, 600 PPM 6 HR/D 5 D/WK FOR 104 WK (STUDY DURATION: 104 WK), 50, 200, 600 PPM 6 HR/D 5 D/WK FOR 104 WK (STUDY DURATION: 104 WK)) was “inactive; negative” and the carcinogen call (Species: MOUSE, Strain/Sex: SWISS/FEMALE, Route: ORAL, 1000, 5000 PPM IN DRINKING WATER ADMINISTERED FOR DURATION OF STUDY TO OFFSPRING OF MOTHERS EXPOSED TO THE SAME DOSES, 1000, 5000 PPM IN DRINKING WATER ADMINISTERED FOR DURATION OF STUDY TO OFFSPRING OF MOTHERS EXPOSED TO THE SAME DOSES, Tumor Site: Type of Lesion: ZYMBAL GLAND: CARCINOMA, ORAL CAVITY: SQUAMOUS CELL CARCINOMA, TONGUE: SQUAMOUS CELL CARCINOMA, ESOPHAGUS: SQUAMOUS CELL, Tumor Site: Type of Lesion: ZYMBAL GLAND: CARCINOMA, ORAL CAVITY: SQUAMOUS CELL CARCINOMA, TONGUE: SQUAMOUS CELL CARCINOMA, ESOPHAGUS: SQUAMOUS CELL) was “active; positive”. The carcinogen call (Species: MOUSE, Strain/Sex: SWISS/FEMALE, Route: ORAL, 1000, 5000 PPM IN DRINKING WATER FOR DURATION OF STUDY (STUDY DURATION:LIFE SPAN), 1000, 5000 PPM IN DRINKING WATER FOR DURATION OF STUDY (STUDY DURATION:LIFE SPAN), Tumor Site: Type of Lesion: TONGUE: SQUAMOUS CELL CARCINOMA, ESOPHAGUS: SQUAMOUS CELL CARCINOMA, LUNG: ADENOMA OR ADENOCARCINOMA, UTERUS: TUMOR, Tumor Site: Type of Lesion: TONGUE: SQUAMOUS CELL CARCINOMA, ESOPHAGUS: SQUAMOUS CELL CARCINOMA, LUNG: ADENOMA OR ADENOCARCINOMA, UTERUS: TUMOR) was “active; positive”, the carcinogen call (Species: MOUSE, Strain/Sex: SWISS/MALE, Route: ORAL, 1000, 5000 PPM IN DRINKING WATER FOR DURATION OF STUDY (STUDY DURATION: LIFE SPAN), 1000, 5000 PPM IN DRINKING WATER FOR DURATION OF STUDY (STUDY DURATION: LIFE SPAN)) was “inactive; negative” and the carcinogen call (Species: RAT, Strain/Sex: CRL:CD(SD)BR/FEMALE, Route: INHALATION, 50, 200, 600 PPM 6 HR/D 5 D/WK FOR 104 WK (STUDY DURATION: 104 WK), 50, 200, 600 PPM 6 HR/D 5 D/WK FOR 104 WK (STUDY DURATION: 104 WK)) was “inactive; negative”. For the same compound, the carcinogen call (Species: RAT, Strain/Sex: CRL:CD(SD)BR/FEMALE, Route: ORAL, 200, 1000, 5000 PPM IN DRINKING WATER FOR 104 WK ADMINISTERED TO OFFSPRING OF RATS ADMINISTERED THE SAME DOSES BEGINN, 200, 1000, 5000 PPM IN DRINKING WATER FOR 104 WK ADMINISTERED TO OFFSPRING OF RATS ADMINISTERED THE SAME DOSES BEGINN) was “inactive; negative”, the carcinogen call (Species: RAT, Strain/Sex: CRL:CD(SD)BR/MALE, Route: INHALATION, 50, 200, 600 PPM 6 HR/D 5 D/WK FOR 104 WK (STUDY DURATION: 104 WK), 50, 200, 600 PPM 6 HR/D 5 D/WK FOR 104 WK (STUDY DURATION: 104 WK), Tumor Site: Type of Lesion: NASAL CAVITY: TUMOR) was “active; positive” and the carcinogen call (Species: RAT, Strain/Sex: CRL:CD(SD)BR/MALE, Route: ORAL, 200, 1000, 5000 PPM IN DRINKING WATER FOR 104 WK ADMINISTERED TO OFFSPRING OF RATS ADMINISTERED THE SAME DOSES BEGINN, 200, 1000, 5000 PPM IN DRINKING WATER FOR 104 WK ADMINISTERED TO OFFSPRING OF RATS ADMINISTERED THE SAME DOSES BEGINN) was “inactive; negative”. For the same compound, the carcinogen call (Species: RAT, Strain/Sex: F344/FEMALE, Route: ORAL, 1000, 2500 MG/L IN DRINKING WATER 5 D/WK FOR 100 WK (STUDY DURATION: 130 WK), 1000, 2500 MG/L IN DRINKING WATER 5 D/WK FOR 100 WK (STUDY DURATION: 130 WK), Tumor Site: Type of Lesion: UTERUS: CARCINOMA, THYROID: C-CELL ADENOMA, LIVER: NEOPLASTIC NODULE, Tumor Site: Type of Lesion: UTERUS: CARCINOMA, THYROID: C-CELL ADENOMA, LIVER: NEOPLASTIC NODULE) was “active; positive”, the carcinogen call (Species: RAT, Strain/Sex: F344/MALE, Route: ORAL, 1000, 2500 MG/L IN DRINKING WATER 5 D/WK FOR 100 WK (STUDY DURATION: 130 WK), 1000, 2500 MG/L IN DRINKING WATER 5 D/WK FOR 100 WK (STUDY DURATION: 130 WK)) was “inactive; negative” and the carcinogen call (Species: SWISS/MALE, Strain/Sex: ORAL, Route: ORAL, 1000, 5000 PPM IN DRINKING WATER ADMINISTERED FOR DURATION OF STUDY TO OFFSPRING OF MOTHERS EXPOSED TO THE SAME DOSES, 1000, 5000 PPM IN DRINKING WATER ADMINISTERED FOR DURATION OF STUDY TO OFFSPRING OF MOTHERS EXPOSED TO THE SAME DOSES, Tumor Site: Type of Lesion: ZYMBAL GLAND: CARCINOMA, ORAL CAVITY: SQUAMOUS CELL CARCINOMA, TONGUE: SQUAMOUS CELL CARCINOMA, ESOPHAGUS: SQUAMOUS CELL, Tumor Site: Type of Lesion: ZYMBAL GLAND: CARCINOMA, ORAL CAVITY: SQUAMOUS CELL CARCINOMA, TONGUE: SQUAMOUS CELL CARCINOMA, ESOPHAGUS: SQUAMOUS CELL) was “active; positive”.
With `C[C@]12CC[C@H](O)CC1=CC[C@@H]1[C@@H]2CC[C@]2(C)C(=O)CC[C@@H]12` the carcinogen call (Species: FISH, Strain/Sex: RAINBOW TROUT/MALE, FEMALE, Route: ORAL, 55, 111, 222, 444, 888 PPM IN DIET 1/D 5 D/WK FOR 42 WK (STUDY DURATION: 42 WK), 55, 111, 222, 444, 888 PPM IN DIET 1/D 5 D/WK FOR 42 WK (STUDY DURATION: 42 WK), Tumor Site: Type of Lesion: LIVER: TUMOR) was “active; positive”, the carcinogen call (Species: FISH, Strain/Sex: RAINBOW TROUT/MALE,FEMALE, Route: ORAL, 55, 111, 222, 444, 888 PPM IN DIET FOR 7 MO (STUDY DURATION: 10 MO), 55, 111, 222, 444, 888 PPM IN DIET FOR 7 MO (STUDY DURATION: 10 MO), Tumor Site: Type of Lesion: LIVER: TUMOR) was “active; positive” and the carcinogen call (Species: RAT, Strain/Sex: F344/MALE, Route: ORAL, 0.45% (WEIGHT/WEIGHT) IN SEMIPURIFIED DIET OIL STRIPPED OF VITAMIN E FOR STUDY DURATION, (STUDY DURATION: 84 WK), 0.45% (WEIGHT/WEIGHT) IN SEMIPURIFIED DIET OIL STRIPPED OF VITAMIN E FOR STUDY DURATION, (STUDY DURATION: 84 WK), Tumor Site: Type of Lesion: LIVER: HEPATOCELLULAR CARCINOMA) was “active; positive”. The carcinogen call (Species: RAT, Strain/Sex: F344/MALE, Route: ORAL, 0.5, 1% IN DIET FOR 78 WK (STUDY DURATION: 78 WK), 0.5, 1% IN DIET FOR 78 WK (STUDY DURATION: 78 WK), Tumor Site: Type of Lesion: LIVER: NEOPLASM) was “active; positive”.
